Measurements reported in the supplement of paper PMC10883282.
± gives the standard deviation of the averaged measurements.

What was measured:
Assay in all cases: relative viability vs DMSO control (72 h) (fraction); higher = more viable cells
HT1080 = system: HT1080
How it was run: (§1)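 Relative viability is percent growth read by ATPLite and averaged over up to triplicate wells. Sarcoma cells were seeded in 384-well plates to reach 80–90% confluence and given 2.5 µl of serially diluted compound after 24 h, from source plates of 10 mM to 0.0002 mM. Incubation lasted 72 h at 37 °C, 5% CO2, with 0.1% DMSO vehicle and a 5 µM positive control, and the data were rescaled so 1 equals full and 0 equals none.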

KHOS-NP = system: KHOS-NP
How it was run: as §1

SK-ES-1 = system: SK-ES-1
How it was run: as §1

RD-ES = system: RD-ES
How it was run: as §1

SW982 = system: SW982
How it was run: as §1

KHOS-240S = system: KHOS-240S
How it was run: as §1

G401 = system: G401
How it was run: as §1

A204 = system: A204
How it was run: as §1

SW1353 = system: SW1353
How it was run: as §1

SW872 = system: SW872
How it was run: as §1

SYO-1 = system: SYO-1
How it was run: as §1

SW684 = system: SW684
How it was run: as §1

C#Cc1cccc(Nc2ncnc3cc4c(cc23)OCCOCCOCCO4)c1 [Icotinib]
Settings	relative viability
A204, 0.00017 µM	1.07 ± 0.086
A204, 0.00051 µM	1.08 ± 0.035
A204, 0.00152 µM	1.11 ± 0.051
A204, 0.00457 µM	1.13 ± 0.024
A204, 0.01372 µM	1.071 ± 0.0034
A204, 0.04115 µM	1.12 ± 0.038
A204, 0.1235 µM	1.09 ± 0.078
A204, 0.3704 µM	1.07 ± 0.063
A204, 1.111 µM	0.967 ± 0.024
A204, 3.333 µM	0.947 ± 0.039
A204, 10 µM	0.877 ± 0.047
G401, 0.00017 µM	1.04 ± 0.026
G401, 0.00051 µM	1.05 ± 0.014
G401, 0.00152 µM	1.04 ± 0.015
G401, 0.00457 µM	1.06 ± 0.024
G401, 0.01372 µM	1.05 ± 0.02
G401, 0.04115 µM	1.05 ± 0.04
G401, 0.1235 µM	1.02 ± 0.012
G401, 0.3704 µM	1.04 ± 0.03
G401, 1.111 µM	1.06 ± 0.019
G401, 3.333 µM	1.03 ± 0.028
G401, 10 µM	1.02 ± 0.046
HT1080, 0.00017 µM	1.08 ± 0.031
HT1080, 0.00051 µM	1.11 ± 0.014
HT1080, 0.00152 µM	1.09 ± 0.022
HT1080, 0.00457 µM	1.1 ± 0.022
HT1080, 0.01372 µM	1.11 ± 0.064
HT1080, 0.04115 µM	1.08 ± 0.037
HT1080, 0.1235 µM	1.1 ± 0.029
HT1080, 0.3704 µM	1.11 ± 0.014
HT1080, 1.111 µM	1.069 ± 0.0085
HT1080, 3.333 µM	1.08 ± 0.012
HT1080, 10 µM	1.06 ± 0.014
KHOS-240S, 0.00017 µM	1.07 ± 0.054
KHOS-240S, 0.00051 µM	1.1 ± 0.07
KHOS-240S, 0.00152 µM	1.1 ± 0.064
KHOS-240S, 0.00457 µM	1.1 ± 0.067
KHOS-240S, 0.01372 µM	1.1 ± 0.058
KHOS-240S, 0.04115 µM	1.09 ± 0.034
KHOS-240S, 0.1235 µM	1.1 ± 0.048
KHOS-240S, 0.3704 µM	1.09 ± 0.054
KHOS-240S, 1.111 µM	1.09 ± 0.064
KHOS-240S, 3.333 µM	1.04 ± 0.062
KHOS-240S, 10 µM	1.03 ± 0.092
KHOS-NP, 0.00017 µM	1.083 ± 0.0088
KHOS-NP, 0.00051 µM	1.09 ± 0.018
KHOS-NP, 0.00152 µM	1.08 ± 0.017
KHOS-NP, 0.00457 µM	1.09 ± 0.019
KHOS-NP, 0.01372 µM	1.09 ± 0.013
KHOS-NP, 0.04115 µM	1.09 ± 0.018
KHOS-NP, 0.1235 µM	1.08 ± 0.0075
KHOS-NP, 0.3704 µM	1.09 ± 0.015
KHOS-NP, 1.111 µM	1.096 ± 0.0079
KHOS-NP, 3.333 µM	1.08 ± 0.011
KHOS-NP, 10 µM	1.07 ± 0.025
RD-ES, 0.00017 µM	0.983 ± 0.02
RD-ES, 0.00051 µM	0.998 ± 0.02
RD-ES, 0.00152 µM	0.989 ± 0.024
RD-ES, 0.00457 µM	1.01 ± 0.022
RD-ES, 0.01372 µM	0.991 ± 0.052
RD-ES, 0.04115 µM	0.982 ± 0.042
RD-ES, 0.1235 µM	0.976 ± 0.033
RD-ES, 0.3704 µM	0.991 ± 0.025
RD-ES, 1.111 µM	0.973 ± 0.012
RD-ES, 3.333 µM	0.977 ± 0.02
RD-ES, 10 µM	0.959 ± 0.028
SK-ES-1, 0.00017 µM	1.03 ± 0.024
SK-ES-1, 0.00051 µM	1.06 ± 0.028
SK-ES-1, 0.00152 µM	1.06 ± 0.024
SK-ES-1, 0.00457 µM	1.01 ± 0.077
SK-ES-1, 0.01372 µM	1.073 ± 0.0071
SK-ES-1, 0.04115 µM	1.08 ± 0.026
SK-ES-1, 0.1235 µM	1.068 ± 0.0031
SK-ES-1, 0.3704 µM	1.07 ± 0.018
SK-ES-1, 1.111 µM	0.998 ± 0.035
SK-ES-1, 3.333 µM	1.01 ± 0.018
SK-ES-1, 10 µM	0.934 ± 0.032
SW684, 0.00017 µM	1.172 ± 0.0059
SW684, 0.00051 µM	1.18 ± 0.053
SW684, 0.00152 µM	1.2 ± 0.04
SW684, 0.00457 µM	1.19 ± 0.052
SW684, 0.01372 µM	1.2 ± 0.064
SW684, 0.04115 µM	1.18 ± 0.031
SW684, 0.1235 µM	1.18 ± 0.091
SW684, 0.3704 µM	1.18 ± 0.066
SW684, 1.111 µM	1.17 ± 0.043
SW684, 3.333 µM	1.16 ± 0.026
SW684, 10 µM	1.13 ± 0.05
SW872, 0.00017 µM	1.14 ± 0.058
SW872, 0.00051 µM	1.14 ± 0.041
SW872, 0.00152 µM	1.11 ± 0.046
SW872, 0.00457 µM	1.108 ± 0.011
SW872, 0.01372 µM	1.11 ± 0.059
SW872, 0.04115 µM	1.09 ± 0.059
SW872, 0.1235 µM	1.08 ± 0.067
SW872, 0.3704 µM	1.07 ± 0.047
SW872, 1.111 µM	1.06 ± 0.041
SW872, 3.333 µM	1.04 ± 0.06
SW872, 10 µM	1.03 ± 0.064
SW982, 0.00017 µM	1.01 ± 0.022
SW982, 0.00051 µM	1.03 ± 0.021
SW982, 0.00152 µM	1.04 ± 0.015
SW982, 0.00457 µM	1.03 ± 0.025
SW982, 0.01372 µM	1.049 ± 0.0053
SW982, 0.04115 µM	1.06 ± 0.032
SW982, 0.1235 µM	1.06 ± 0.025
SW982, 0.3704 µM	1.05 ± 0.043
SW982, 1.111 µM	0.999 ± 0.03
SW982, 3.333 µM	0.9946 ± 0.0073
SW982, 10 µM	0.977 ± 0.046
SW1353, 0.00017 µM	1.06 ± 0.025
SW1353, 0.00051 µM	1.04 ± 0.016
SW1353, 0.00152 µM	1.03 ± 0.019
SW1353, 0.00457 µM	1.07 ± 0.044
SW1353, 0.01372 µM	1.045 ± 0.0071
SW1353, 0.04115 µM	1.01 ± 0.043
SW1353, 0.1235 µM	1.01 ± 0.038
SW1353, 0.3704 µM	0.976 ± 0.022
SW1353, 1.111 µM	0.952 ± 0.015
SW1353, 3.333 µM	0.914 ± 0.031
SW1353, 10 µM	0.847 ± 0.033
SYO-1, 0.00017 µM	1.01 ± 0.062
SYO-1, 0.00051 µM	1.03 ± 0.05
SYO-1, 0.00152 µM	1.01 ± 0.015
SYO-1, 0.00457 µM	0.968 ± 0.048
SYO-1, 0.01372 µM	0.989 ± 0.031
SYO-1, 0.04115 µM	0.979 ± 0.03
SYO-1, 0.1235 µM	0.982 ± 0.013
SYO-1, 0.3704 µM	0.98 ± 0.031
SYO-1, 1.111 µM	0.966 ± 0.041
SYO-1, 3.333 µM	0.892 ± 0.07
SYO-1, 10 µM	0.855 ± 0.021
